What is called DC50 is the concentration at which degradation of the target reaches its halfway point.

SMILES strings stand for the structures.

In US20250388565A1, “ESTROGEN RECEPTOR ALPHA DEGRADERS AND METHODS OF USE THEREOF” (Relay Therapeutics, Inc., priority 2022, published 2025) one finds DC50 data, which are given here for 34 molecules.

This assay concerns the target T1, ERα protein (HiBiT-tagged) in ESR1_HiBiT KI MCF7 cells (Homo sapiens, UniProt P03372).
T1 sequence (P03372 1-595): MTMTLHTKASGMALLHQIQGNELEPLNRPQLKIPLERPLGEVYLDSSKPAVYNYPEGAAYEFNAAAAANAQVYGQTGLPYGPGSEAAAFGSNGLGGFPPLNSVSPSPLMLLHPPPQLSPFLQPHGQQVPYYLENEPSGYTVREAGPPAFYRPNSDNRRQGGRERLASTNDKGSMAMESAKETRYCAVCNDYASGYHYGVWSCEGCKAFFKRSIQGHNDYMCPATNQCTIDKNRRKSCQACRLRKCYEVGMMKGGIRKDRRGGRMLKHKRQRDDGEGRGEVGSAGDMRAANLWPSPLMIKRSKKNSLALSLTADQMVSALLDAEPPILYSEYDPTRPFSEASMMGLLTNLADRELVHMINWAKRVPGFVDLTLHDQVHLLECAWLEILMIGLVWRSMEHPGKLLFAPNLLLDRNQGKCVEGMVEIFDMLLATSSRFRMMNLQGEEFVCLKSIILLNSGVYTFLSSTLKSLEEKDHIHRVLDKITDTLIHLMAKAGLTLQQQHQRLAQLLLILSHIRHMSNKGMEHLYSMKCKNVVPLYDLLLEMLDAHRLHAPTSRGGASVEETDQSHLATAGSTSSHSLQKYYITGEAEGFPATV
Description: Nano Glo HiBiT Lytic Degradation Assay. In kind it is cell-based. The following applies: 6 hours with compound, 14-point dose response 1:3, bell-shape curve fit, half-maximal effect of first Hill model, read-out: MCF7 ESR1 HiBiT - (DC50). Summed up:
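HiBiT-tagged endogenous ERα remaining in MCF7 knock-in cells was quantified by lytic luminescence after a 6 h treatment. DC50 values derive from a bell-shaped curve, taken at the first Hill component's half-maximal effect.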
On the technique in general: The HiBiT peptide binds its large partner to form an active luciferase.

With `O=C1CC[C@H](N2Cc3cc(N4CCN(CC5CCN(c6ccc([C@@H]7c8ccc(O)cc8CC[C@@H]7c7cccc8c7CCC8)cc6)CC5)CC4)ccc3C2=O)C(=O)N1` (single isomer, unassigned) [Compound I-410], the half-maximal degradation concentration (DC50) was not below 10000 nM. In the case of `O=C1CC[C@H](N2Cc3cc(N4CCN(CC5CCN(c6ccc([C@H]7c8ccc(O)cc8CC[C@H]7c7cccc8c7CCC8)cc6)CC5)CC4)ccc3C2=O)C(=O)N1` (single isomer, unassigned) [Compound I-411] it was 1 nM; in that of `O=C1CC[C@H](N2Cc3cc(N4CCN(CC5CCN(c6ccc([C@@H]7c8ccc(O)cc8CC[C@@H]7c7ccc8c(c7)CCC8)cc6)CC5)CC4)ccc3C2=O)C(=O)N1` (single isomer, unassigned) [Compound I-412], 332 nM. For the molecule `O=C1CC[C@H](N2Cc3cc(N4CCN(CC5CCN(c6ccc([C@H]7c8ccc(O)cc8CC[C@H]7c7ccc8c(c7)CCC8)cc6)CC5)CC4)ccc3C2=O)C(=O)N1` (single isomer, unassigned) [Compound I-413], the DC50 stood at 0.27 nM. In the case of `Cc1cc([C@H]2CCc3cc(O)ccc3[C@H]2c2ccc(N3CCC(CN4CCN(c5ccc6c(c5)CN([C@H]5CCC(=O)NC5=O)C6=O)CC4)CC3)cc2)n(C)n1` (single isomer, unassigned) [Compound I-414] it was 0.37 nM; in that of `Cc1cc([C@@H]2CCc3cc(O)ccc3[C@@H]2c2ccc(N3CCC(CN4CCN(c5ccc6c(c5)CN([C@H]5CCC(=O)NC5=O)C6=O)CC4)CC3)cc2)n(C)n1` (single isomer, unassigned) [Compound I-415], 0.02 nM. Then `O=C1CC[C@H](N2Cc3cc(N4CCN(CC5CCN(c6ccc([C@H]7c8ccc(O)cc8CC[C@H]7C7=CCCCC7)cc6)CC5)CC4)ccc3C2=O)C(=O)N1` (single isomer, unassigned) [Compound I-416], with 0.44 nM. Then `C[C@]1(C2CCCCC2)OCc2cc(O)ccc2[C@H]1c1ccc(N2CCC(CN3CCN(c4ccc5c(c4)CN([C@H]4CCC(=O)NC4=O)C5=O)CC3)CC2)cc1` (single isomer, unassigned) [Compound I-418], with 0.33 nM; and `C[C@@H]1C[C@H](c2ccccc2)[C@H](c2ccc(N3CCC(CN4CCN(c5ccc6c(c5)CN([C@H]5CCC(=O)NC5=O)C6=O)CC4)CC3)cc2)c2ccc(O)cc21` (single isomer, unassigned) [Compound I-419], with 2 nM. Regarding `C[C@H]1C[C@H](c2ccccc2)[C@H](c2ccc(N3CCC(CN4CCN(c5ccc6c(c5)CN([C@H]5CCC(=O)NC5=O)C6=O)CC4)CC3)cc2)c2ccc(O)cc21` (single isomer, unassigned) [Compound I-420], the half-maximal degradation concentration (DC50) came out at 2 nM.

Take `O=C1CCC(c2ccc(N3CCC4(CCN(CC5CCN(c6ccc([C@@H]7c8ccc(O)cc8CC[C@@H]7c7ccccc7)cc6)CC5)C4)CC3)cc2)C(=O)N1` (single isomer, unassigned) [Compound I-421]: the DC50 came out at 0.77 nM. Then `O=C1CCC(c2ccc3c(c2)C[C@@H](N2CCN(CC4CCN(c5ccc([C@@H]6c7ccc(O)cc7CC[C@@H]6c6ccccc6)cc5)CC4)CC2)CC3)C(=O)N1` (single isomer, unassigned) [Compound I-422], with 141 nM; and `O=C1CCC(c2ccc3c(c2)C[C@H](N2CCN(CC4CCN(c5ccc([C@@H]6c7ccc(O)cc7CC[C@@H]6c6ccccc6)cc5)CC4)CC2)CC3)C(=O)N1` (single isomer, unassigned) [Compound I-423], with not below 10000 nM. As to `C[C@H]1CN(c2ccc3c(c2)CN([C@H]2CCC(=O)NC2=O)C3=O)CCN1CC1CCN(c2ccc([C@@H]3c4ccc(O)cc4CC[C@@H]3c3ccccc3)cc2)CC1` (single isomer, unassigned) [II-1], the DC50 was determined as 2 nM. In the case of `C[C@@H]1CN(CC2CCN(c3ccc([C@@H]4c5ccc(O)cc5CC[C@@H]4c4ccccc4)cc3)CC2)CCN1c1ccc2c(c1)CN([C@H]1CCC(=O)NC1=O)C2=O` (single isomer, unassigned) [II-3] it was 6 nM.

Take `C[C@@H]1CN(CC2CCN(c3ccc([C@H]4c5ccc(O)cc5CC[C@H]4c4ccccc4)cc3)CC2)CCN1c1ccc2c(c1)CN([C@H]1CCC(=O)NC1=O)C2=O` (single isomer, unassigned) [II-4]: the half-maximal degradation concentration (DC50) worked out at 1140 nM. Then `O=C1CC[C@H](N2Cc3cc(N4C[C@H]5C[C@@H]4CN5CC4CCN(c5ccc([C@@H]6c7ccc(O)cc7CC[C@@H]6c6ccccc6)cc5)CC4)ccc3C2=O)C(=O)N1` (single isomer, unassigned) [II-5], with 2 nM. In the case of `O=C1CC[C@H](N2Cc3cc(N4C[C@H]5C[C@@H]4CN5CC4CCN(c5ccc([C@H]6c7ccc(O)cc7CC[C@H]6c6ccccc6)cc5)CC4)ccc3C2=O)C(=O)N1` (single isomer, unassigned) [II-6], the DC50 is not below 10000 nM. In the case of `CN(CC1CCN(c2ccc([C@@H]3c4ccc(O)cc4CC[C@@H]3c3ccccc3)cc2)CC1)C1CN(c2ccc3c(c2)CN(C2CCC(=O)NC2=O)C3=O)C1` (single isomer, unassigned) [II-9] it was 21 nM; in that of `C[C@H]1CN(CC2CCN(c3ccc([C@@H]4c5ccc(O)cc5CC[C@@H]4c4ccccc4)cc3)CC2)CCN1c1ccc2c(c1)CN([C@H]1CCC(=O)NC1=O)C2=O` (single isomer, unassigned) [II-10], 5 nM. In the case of `C[C@H]1CN(c2ccc3c(c2)CN([C@H]2CCC(=O)NC2=O)C3=O)CCN1CC1CCN(c2ccc([C@H]3c4ccc(O)cc4CC[C@H]3c3ccccc3)cc2)CC1` (single isomer, unassigned) [II-11] it was not below 10000 nM. Then `C[C@H]1CN(CC2CCN(c3ccc([C@H]4c5ccc(O)cc5CC[C@H]4c4ccccc4)cc3)CC2)CCN1c1ccc2c(c1)CN([C@H]1CCC(=O)NC1=O)C2=O` (single isomer, unassigned) [II-12], with not below 10000 nM; and `O=C1CC[C@H](N2Cc3cc(N4CCN(C[C@H]5CCN(c6ccc([C@@H]7c8ccc(O)cc8CC[C@@H]7c7ccccc7)cc6)C5)CC4)ccc3C2=O)C(=O)N1` (single isomer, unassigned) [II-13], with 18 nM. With `CN(CC1CCN(c2ccc([C@H]3c4ccc(O)cc4CC[C@H]3c3ccccc3)cc2)CC1)C1CN(c2ccc3c(c2)CN(C2CCC(=O)NC2=O)C3=O)C1` (single isomer, unassigned) [II-14], the 50% degradation concentration (DC50) is not below 10000 nM. Then `C[C@@H]1CN(c2ccc3c(c2)CN([C@H]2CCC(=O)NC2=O)C3=O)CCN1CC1CCN(c2ccc([C@H]3c4ccc(O)cc4CC[C@H]3c3ccccc3)cc2)CC1` (single isomer, unassigned) [II-15], with not below 10000 nM. In the case of `O=C1CCC(N2Cc3c(ccc(N4CCN(CC5CCN(c6ccc([C@@H]7c8ccc(O)cc8CC[C@@H]7c7ccccc7)cc6)CC5)CC4)c3F)C2=O)C(=O)N1` (single isomer, unassigned) [II-16] it was 2 nM. Then `O=C1CC[C@H](N2Cc3cc(N4CCC5(CCN(CC6CCN(c7ccc([C@H]8c9ccc(O)cc9CC[C@H]8c8ccccc8)cc7)CC6)CC5)CC4)ccc3C2=O)C(=O)N1` (single isomer, unassigned) [II-18], with not below 10000 nM. For the molecule `O=C1CCC(N2Cc3cc(N4CCN(CC5CCN(c6ccc([C@@H]7c8ccc(O)cc8CC[C@@H]7c7ccccc7)cc6)CC5)CC4)c(F)cc3C2=O)C(=O)N1` (single isomer, unassigned) [II-19], the half-maximal degradation concentration (DC50) was not below 10000 nM. For the molecule `O=C1CC[C@H](N2Cc3cc(N4CCN(C[C@@H]5CCCN(c6ccc([C@@H]7c8ccc(O)cc8CC[C@@H]7c7ccccc7)cc6)C5)CC4)ccc3C2=O)C(=O)N1` (single isomer, unassigned) [II-20], the DC50 is not below 10000 nM. Regarding `O=C1CC[C@H](N2Cc3cc(N4CCN(C[C@@H]5CCCN(c6ccc([C@H]7c8ccc(O)cc8CC[C@H]7c7ccccc7)cc6)C5)CC4)ccc3C2=O)C(=O)N1` (single isomer, unassigned) [II-21], the half-maximal degradation concentration (DC50) was 173 nM.

As to `O=C1CC[C@H](N2Cc3cc(N4CCN(C[C@H]5CCCN(c6ccc([C@@H]7c8ccc(O)cc8CC[C@@H]7c7ccccc7)cc6)C5)CC4)ccc3C2=O)C(=O)N1` (single isomer, unassigned) [II-22], the DC50 came to 5 nM. In the case of `O=C1CC[C@H](N2Cc3cc(N4CCN(C[C@H]5CCCN(c6ccc([C@H]7c8ccc(O)cc8CC[C@H]7c7ccccc7)cc6)C5)CC4)ccc3C2=O)C(=O)N1` (single isomer, unassigned) [II-23] it was not below 10000 nM.

With `O=C1CC[C@H](N2Cc3cc(N4CCN(CC5CCN(c6ccc([C@@H]7c8ccc(O)cc8CC[C@@H]7c7ccccc7F)cc6)CC5)CC4)ccc3C2=O)C(=O)N1` (single isomer, unassigned) [II-24], the DC50 was found to be 245 nM. In the case of `O=C1CC[C@H](N2Cc3cc(N4CCN(CC5CCN(c6ccc([C@H]7c8ccc(O)cc8CC[C@H]7c7ccccc7F)cc6)CC5)CC4)ccc3C2=O)C(=O)N1` (single isomer, unassigned) [II-25], the half-maximal degradation concentration (DC50) turned out to be 1.17 nM.
